24 compounds from patent publication US20250333405A1, “ANTAGONISTS OF GPR39 PROTEIN” (VASOCARDEA, INC., priority 2024, published 2025) can be followed below.

In this test the target is T1, human GPR39 receptor (Homo sapiens, UniProt O43194).
T1 construct: PC3 Cells, Expressing the Endogenous Human GPR39 Receptor; endogenous in cells; host or cells: PC3 (human prostate adenocarcinoma) cells
T1 sequence (O43194 1-453): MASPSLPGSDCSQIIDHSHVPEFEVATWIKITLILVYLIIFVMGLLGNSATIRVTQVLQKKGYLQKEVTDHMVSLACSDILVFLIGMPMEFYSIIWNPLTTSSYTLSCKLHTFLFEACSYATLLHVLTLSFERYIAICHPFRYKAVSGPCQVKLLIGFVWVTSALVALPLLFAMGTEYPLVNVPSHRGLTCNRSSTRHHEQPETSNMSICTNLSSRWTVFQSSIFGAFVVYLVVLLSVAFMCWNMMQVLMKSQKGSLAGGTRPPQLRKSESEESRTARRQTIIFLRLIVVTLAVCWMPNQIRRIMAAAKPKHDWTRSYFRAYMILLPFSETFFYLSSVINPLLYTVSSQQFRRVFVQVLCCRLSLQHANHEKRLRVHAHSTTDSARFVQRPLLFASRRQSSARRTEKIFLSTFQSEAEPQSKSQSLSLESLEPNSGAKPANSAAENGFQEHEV
In words: Intracellular calcium response (FLIPR, Calcium-6) in PC3 cells, antagonism of agonist C3 (TC-G 1008) at EC90. In kind it is cell-based. The following applies: functional pKi (-Log10Ki) by modified Cheng-Prusoff from IC50; PC3 cells endogenously expressing human GPR39; 30 μM ZnCl2; agonist C3 (TC-G 1008) at EC90 1.5 μM; read-out: fpKi activity. How it is done: Measurement of Intracellular Calcium Response in PC3 Cells, Expressing the Endogenous Human GPR39 Receptor
Human prostate adenocarcinoma (PC3) cells endogenously expressing human GPR39 receptor were seeded into black walls clear-base 384-well plates at a density of 7,500 cells per well in DMEM (Low Glucose) supplemented with 10% heat-inactivated foetal bovine serum and 1% of Pen/Strep and grown overnight at 37° C., 5% CO2. After washing with assay buffer (20 mM HEPES, 137 mM NaCl, 5.4 mM KCl, 10 mM glucose, 0.8 mM MgSO4, 1.3 mM CaCl2), 0.3 mM Na2HPO4, 0.4 mM KH2PO4 4.2 mM NaHCO3, pH 7.4), cells were incubated with Calcium-6 probe (Molecular Devices) at 37° C. for 2 h and then equilibrated at RT for 30 minutes on metal block. The fluorescence was measured in real time by Fluorometric Imaging Plate Reader (FLIPR TETRA, Molecular Devices) (excitation wavelength at 470-495 nm, emission wavelength at 515-575 nm). Compounds of invention were serially diluted in neat DMSO at 1000 fold concentrations and plated into 384-well plates and then 200-fold diluted in assay buffer containing 150 μM ZnCl2 (30 μM final concentration) and 1.1% DMSO (0.32% final concentration). A dual addition FLIPR protocol was used which included a first addition of compounds 200-fold diluted in Assay Buffer containing 150 μM ZnCl2 and 1.1% DMSO and then after 10 minutes a second addition of a submaximal concentration of the hGPR39 receptor agonist, C3 (Tocris, TC-G 1008) at EC90 (concentration producing 90% of the maximal response) value of 1.5 μM. Fluorescence was monitored throughout the run assay. The peak of Ca2+ stimulation (baseline subtracted) was expressed as percentage of the maximal inhibition of the EC90 C3 response and was plotted versus the concentration of test compound. Curve fitting and IC50 estimations are carried out using a four-parameter logistic model using XLfit Software. […] An fpKi less than 5.2 is reported as “+/−”. An fpKi ranging from 5.2 to 5.9 is reported as “+”. An fpKi from 6.0 to 6.5 is reported as “++”. An fpKi from 6.6 to 7.2 is reported as “+++”. An fpKi equal to or greater than 7.3 is reported as “++++”.

For the compound `Cc1nnc(-c2ccc(C(=O)N3CCC(F)(F)CC3)c(-c3ccn(C)n3)c2)[nH]1` [Example 46, (4,4-difluoropiperidin-1-yl)-[2-(1-methylpyrazol-3-yl)-4-(5-methyl-4H-1,2,4-triazol-3-yl)phenyl]methanone], the Ki was 63.1 to 251 nM.
Under `Cc1nnc(-c2ccc(C(=O)N3CCC(C(F)(F)F)CC3)c(-c3ccn(C4CCC4)n3)c2)[nH]1` [Example 47, [2-(1-cyclobutylpyrazol-3-yl)-4-(5-methyl-4H-1,2,4-triazol-3-yl)phenyl]-[4-(trifluoromethyl)piperidin-1-yl]methanone] stands no more than 50.1 nM; under `Cc1nnc(-c2ccc(C(=O)N3CCC(C(F)(F)F)CC3)c(-c3ccn(C(C)C)n3)c2)[nH]1` [Example 48, [4-(5-methyl-4H-1,2,4-triazol-3-yl)-2-(1-propan-2-ylpyrazol-3-yl)phenyl]-[4-(trifluoromethyl)piperidin-1-yl]methanone], no more than 50.1 nM; under `Cc1nnc(-c2ccc(C(=O)N3CCC4(CC3)CC4)c(-c3cnn(C(C)C)c3)c2)[nH]1` [Example 49, 6-azaspiro[2.5]octan-6-yl-[4-(5-methyl-4H-1,2,4-triazol-3-yl)-2-(1-propan-2-ylpyrazol-4-yl)phenyl]methanone], 316 to 1000 nM.
The result for `Cc1nnc(-c2ccc(C(=O)N3CCC4(CC3)CC4)c(-c3ccn(C(C)C)n3)c2)[nH]1` [Example 50, 6-azaspiro[2.5]octan-6-yl-[4-(5-methyl-4H-1,2,4-triazol-3-yl)-2-(1-propan-2-ylpyrazol-3-yl)phenyl]methanone] reads no more than 50.1 nM; that for `Cc1nnc(-c2ccc(C(=O)N3CCC(F)(F)CC3)c(-c3ccn(C(C)C)n3)c2)[nH]1` [Example 51, (4,4-difluoropiperidin-1-yl)-[4-(5-methyl-4H-1,2,4-triazol-3-yl)-2-(1-propan-2-ylpyrazol-3-yl)phenyl]methanone], no more than 50.1 nM.
The result for `Cc1nnc(-c2ccc(C(=O)N3CC4(C3)CC(F)(F)C4)c(-c3ccn(C(C)C)n3)c2)[nH]1` [Example 52, (6,6-difluoro-2-azaspiro[3.3]heptan-2-yl)-[2-(1-isopropylpyrazol-3-yl)-4-(5-methyl-4H-1,2,4-triazol-3-yl)phenyl]methanone] reads no more than 50.1 nM.
In the case of `Cc1nnc(-c2ccc(C(=O)N3CCC(C(F)(F)F)CC3)c(-c3ccn(C(C)(C)C)n3)c2)[nH]1` [Example 53, [2-(1-tert-butylpyrazol-3-yl)-4-(5-methyl-4H-1,2,4-triazol-3-yl)phenyl]-[4-(trifluoromethyl)-1-piperidyl]methanone], the Ki is no more than 50.1 nM.
Take `Cc1nnc(-c2ccc(C(=O)N3CCC(F)(F)CC3)c(-c3ccn(C(C)(C)C)n3)c2)[nH]1` [Example 54, [2-(1-tert-butylpyrazol-3-yl)-4-(5-methyl-4H-1,2,4-triazol-3-yl)phenyl]-(4,4-difluoropiperidin-1-yl)methanone]: the Ki was no more than 50.1 nM.
The result for `Cc1nnc(-c2ccc(C(=O)N3CCC(F)(F)CC3)c(-c3ccn(C4CCC4)n3)c2)[nH]1` [Example 55, [2-(1-cyclobutylpyrazol-3-yl)-4-(5-methyl-4H-1,2,4-triazol-3-yl)phenyl]-(4,4-difluoropiperidin-1-yl)methanone] reads no more than 50.1 nM; that for `Cc1nnc(-c2ccc(C(=O)N3CCC(OC(F)(F)F)CC3)c(-c3ccn(C(C)C)n3)c2)[nH]1` [Example 56, 1-[4-(5-methyl-4H-1,2,4-triazol-3-yl)-2-[1-(propan-2-yl)-1H-pyrazol-3-yl]benzoyl]-4-(trifluoromethoxy) piperidine], no more than 50.1 nM; that for `COC1CCN(C(=O)c2ccc(-c3nnc(C)[nH]3)cc2-c2ccn(C(C)C)n2)CC1` [Example 58, (4-methoxypiperidin-1-yl)-[4-(5-methyl-4H-1,2,4-triazol-3-yl)-2-(1-propan-2-ylpyrazol-3-yl)phenyl]methanone], no more than 50.1 nM.
The result for `CCn1ccc(-c2cc(-c3nnc(C)[nH]3)ccc2C(=O)N2CCC(F)(F)CC2)n1` [Example 59, (4,4-difluoro-1-piperidyl)-[2-(1-ethylpyrazol-3-yl)-4-(5-methyl-4H-1,2,4-triazol-3-yl)phenyl]methanone] reads no more than 50.1 nM.
The result for `Cc1nnc(-c2ccc(C(=O)N3CCC(F)(F)CC3)c(-c3ccn(C4COC4)n3)c2)[nH]1` [Example 60, (4,4-difluoro-1-piperidyl)-[4-(5-methyl-4H-1,2,4-triazol-3-yl)-2-[1-(oxetan-3-yl)pyrazol-3-yl]phenyl]methanone] reads no more than 50.1 nM; that for `Cc1nnc(-c2ccc(C(=O)N3CCC(C)CC3)c(-c3ccn(C(C)C)n3)c2)[nH]1` [Example 61, (4-methylpiperidin-1-yl)-[4-(5-methyl-4H-1,2,4-triazol-3-yl)-2-(1-propan-2-ylpyrazol-3-yl)phenyl]methanone], no more than 50.1 nM; that for `Cc1nnc(-c2ccc(C(=O)N3CCC(C)CC3)c(-c3nc(C(F)(F)F)cs3)c2)[nH]1` [Example 62, (4-methyl-1-piperidyl)-[4-(5-methyl-4H-1,2,4-triazol-3-yl)-2-[4-(trifluoromethyl)thiazol-2-yl]phenyl]methanone], no more than 50.1 nM.
Take `Cc1nnc(-c2ccc(C(=O)N3CCC(C)CC3)c(-c3cccc(C4CC4)n3)c2)[nH]1` [Example 63, [2-(6-cyclopropyl-2-pyridyl)-4-(5-methyl-4H-1,2,4-triazol-3-yl)phenyl]-(4-methyl-1-piperidyl)methanone]: the Ki is no more than 50.1 nM.
Regarding `Cc1nnc(-c2ccc(C(=O)N3CCC(C)CC3)c(-c3ccn(C(C)(C)C)n3)c2)[nH]1` [Example 64, [2-(1-tert-butylpyrazol-3-yl)-4-(5-methyl-4H-1,2,4-triazol-3-yl)phenyl]-(4-methyl-1-piperidyl)methanone], the Ki was no more than 50.1 nM.
Turning to `Cc1nnc(-c2ccc(C(=O)N3CCC(C)(F)CC3)c(-c3cccc(C4CC4)n3)c2)[nH]1` [Example 65, [2-(6-cyclopropyl-2-pyridyl)-4-(5-methyl-4H-1,2,4-triazol-3-yl)phenyl]-(4-fluoro-4-methyl-1-piperidyl)methanone], the Ki is no more than 50.1 nM.
Consider `COC1(C)CCN(C(=O)c2ccc(-c3nnc(C)[nH]3)cc2-c2ccn(C(C)(C)C)n2)CC1` [Example 66, [2-(1-tert-butylpyrazol-3-yl)-4-(5-methyl-4H-1,2,4-triazol-3-yl)phenyl]-(4-methoxy-4-methyl-1-piperidyl)methanone], for which the Ki is no more than 50.1 nM.
On to `COC1(C)CCN(C(=O)c2ccc(-c3nnc(C)[nH]3)cc2-c2nc(C(F)(F)F)cs2)CC1` [Example 67, (4-methoxy-4-methyl-1-piperidyl)-[4-(5-methyl-4H-1,2,4-triazol-3-yl)-2-[4-(trifluoromethyl)thiazol-2-yl]phenyl]methanone], for which the Ki is no more than 50.1 nM.
The result for `Cc1cc(C(F)(F)F)nc(-c2cc(-c3nnc(C)[nH]3)ccc2C(=O)N2CCC(C(F)(F)F)CC2)n1` [Example 68, [4-(5-methyl-4H-1,2,4-triazol-3-yl)-2-[4-methyl-6-(trifluoromethyl)pyrimidin-2-yl]phenyl]-[4-(trifluoromethyl)-1-piperidyl]methanone] reads no more than 50.1 nM.
On to `Cc1nnc(-c2ccc(C(=O)N3CCC(C(F)(F)F)CC3)c(-c3nc(C4CC4)cs3)c2)[nH]1` [Example 69, [2-(4-cyclopropylthiazol-2-yl)-4-(5-methyl-4H-1,2,4-triazol-3-yl)phenyl]-[4-(trifluoromethyl)-1-piperidyl]methanone], for which the Ki is no more than 50.1 nM.
The result for `Cc1nnc(-c2ccc(C(=O)N3CCC(C(F)(F)F)CC3)c(-c3cccc(C(C)C)n3)c2)[nH]1` [Example 70, [2-(6-isopropyl-2-pyridyl)-4-(5-methyl-4H-1,2,4-triazol-3-yl)phenyl]-[4-(trifluoromethyl)-1-piperidyl]methanone] reads no more than 50.1 nM.
